# Data reported in patent US20160333063A1, “SOLUBLE HIGH MOLECULAR WEIGHT (HMW) TAU SPECIES AND APPLICATIONS THEREOF” (THE GENERAL HOSPITAL CORPORATION, priority 2013, published 2016).
# Where a SMILES comes first, the peptide text is derived from it. The star is where a group is joined. Cbz = O=C(OCc1ccccc1)*; CH2F = FC*
# Legend:
# Format in all cases: cell-based, mouse
# caspase 3 = assay: Western blot of cleaved caspase 3 in treated primary cortical neurons
# Experimental: (§1) Treatment of neuronal cultures. Wild-type (from CD1 mice), Tau−/−, Tau+/−, and Tau+/+ cortical neurons were cultured in standard NB/B27 serum-free medium, and, at 14 DIV, the medium was replaced with diluted 1:3 CM from TgCM, corresponding to 4 nM of Aβ, or WtCM (0.16 nM of murine Aβ40) and further incubated for 24 hrs. To induce apoptosis, cultures were treated with staurosporine (Enzo Life Sciences) at a final concentration of 1 μM and were harvested 4 hours after treatment. In zVAD-FMK (Sigma Aldrich) experiments, 20 μM of the inhibitor was applied to cultures 20 minutes prior to exposure to WtCM, TgCM, or STS. To inhibit calcineurin, 1 μM FK506 (Enzo Life Sciences) was applied 20 minutes prior to exposure to WtCM, TgCM or STS. Media was then aspirated and RIPA buffer with phosphatase and protease inhibitors was added to each well. Cells were scraped to prepare lysates for Western blots.
# Western Blot. Protein lysates were boiled in sample buffer consisting of LDS Sample Buffer and reducing Agent, resolved on 4%-12% Bis-Tris polyacrylamide precast gels in a MES-SDS running buffer containing antioxidant. For most analyses, 20 μg/lane were loaded. Gels were transferred onto nitrocellulose membranes (Whatman) in transfer buffer containing 20% methanol. Blots were blocked in Odyssey blocking buffer (Li-Cor biosciences), followed by incubation with primary antibodies: mouse β-actin (Sigma; 1:10,000); rabbit cleaved caspase 3 (Cell Signaling; 1:1,000); rabbit caspase 3 (Cell Signaling; 1:1,000); mouse TauC3 (courtesy of Dr Lester Binder, 1:300); rabbit polyclonal Total Tau (Dako; 1:10,000), rabbit PSD95 (1:1,000; Cell Signaling), rabbit cleaved caspase 9 (1:1,000; Cell Signaling), mouse caspase 9 (1:1,000; Cell Signaling), rabbit pBAD (1:1,000; Cell Signaling), rabbit BAD (1:1,000; Cell Signaling), VDAC (1:1,000; Cell Signaling), mouse cytochrome c (1:1,000; BD Pharmingen), mouse BAX (1:1,000; Santa Cruz), rabbit cleaved PARP (1:1,000; Cell Signaling), rabbit PARP (1:1,000; Cell Signaling). […]
# [1] = tested on: poly (ADP-ribose) polymerase (PARP); assay: Western blot of cleaved PARP; conditions: TgCM 24 hrs; STS 6 hours
# Experimental: as §1, with “To induce apoptosis, cultures were treated with staurosporine (Enzo Life Sciences) at a final concentration of 1 μM and were harvested 4 hours after treatment.” left out
# (§2) Western Blot. Protein lysates were boiled in sample buffer consisting of LDS Sample Buffer and reducing Agent, resolved on 4%-12% Bis-Tris polyacrylamide precast gels in a MES-SDS running buffer containing antioxidant. For most analyses, 20 μg/lane were loaded. Gels were transferred onto nitrocellulose membranes (Whatman) in transfer buffer containing 20% methanol. […]
# [2] = tested on: primary neuronal cultures; assay: ToxiLight BioAssay for cell death
# Experimental: ToxiLight BioAssay. Toxicity assays were conducted in medium collected from wild-type, Tau+/− and Tau−/− neurons plated in 96 well plates at 15 DIV using the ToxiLight BioAssay kit (Lonza, Rockland, Me.). Preparation of cell extracts and the cytotoxicity assay were performed according to manufacturer protocols. After centrifugation, 50 μl samples per well were transferred on an opaque white microtitre plate. To each well, 100 μl of the adenylate kinase detection reagent was added and the plate was incubated for 5 min at room temperature. After 5 min, luminescence was measured in the Wallac plate reader. Results are expressed as arbitrary relative light units (AU). To achieve 100% cell lysis (positive control) neurons were treated with 10% triton-X-100. […] Neurons for Toxilight assays were plated in 96 well plates using 3 wells per condition in duplicate across four separate culture experiments.
# [3] = tested on: tau cleaved at Asp421 (TauC3); assay: Western blot of tau cleaved at Asp421 in treated primary cortical neurons
# Experimental: as §1, §2
# caspase 9 = assay: Western blot of cleaved caspase 9 in treated primary cortical neurons; conditions: TgCM treated cultures, inhibitor or Aβ immunodepletion
# Experimental: as §1, §2
# BAD = assay: Western blot of phosphorylated BAD in treated primary cortical neurons; conditions: TgCM treated cultures, inhibitor or Aβ immunodepletion
# Experimental: as §1, §2
# cytochrome c = assay: Western blot of cytochrome c in cytosolic fraction and mitochondrial pellet; conditions: TgCM treated cultures plus inhibitor
# Experimental: as §1
# Mitochondria Isolations. Mitochondria were isolated from neurons plated in 10 cm dishes treated with WtCM and TgCM and purified by centrifugation as previously described (Ofengeim et al., 2012). […] The protein concentration was determined by BCA assay (Thermo Scientific) in all fractions and this concentration used for loading gels for western blot analysis. […]
# GFP transfected neurons = assay: Spine density of GFP transfected neurons
# Experimental: Analysis of spine density and spine morphology. Cultured neurons plated in 35 mm glass-bottomed dishes (MatTek) were transfected with green fluorescent protein (GFP) (Clontech) at 7 DIV and imaged at 15 DIV. High-resolution digital images were taken using a Zeiss LSM510 confocal microscope with a 25× water-immersion objective lens (digital zoom=3-5), and excitation laser at 488 nm. Images were analyzed with NeuronStudio software (CNIC, Mount Sinai School of Medicine). Spine density was defined as the number of spines per micrometer of dendrite length according previously published protocols (Wu et al., 2010) with modifications. Dendritic spine densities were calculated from 30 to 40 neurons per condition across four separate culture experiments. For each condition, measurements of spine densities were averaged per neuron; the means from multiple neurons were then averaged to obtain the mean±s.e.m. for the population of neurons.
# PSD95 = assay: Western blot of PSD95; conditions: co-treated with inhibitor
# Experimental: as §1, §2
# [4] = STS 1 μM plus caspase inhibition
# [5] = TgCM (4 nM Aβ) 24 hrs, inhibitor applied 20 minutes prior
structure (smiles),measurement,setting,value
C=CC[C@@H]1/C=C(\C)C[C@H](C)C[C@H](OC)[C@H]2O[C@@](O)(C(=O)C(=O)N3CCCC[C@H]3C(=O)O[C@H](/C(C)=C/[C@@H]3CC[C@@H](O)[C@H](OC)C3)[C@H](C)[C@@H](O)CC1=O)[C@H](C)C[C@@H]2OC [FK506],"caspase 3 activation, tau cleavage, caspase 9 activation and BAD dephosphorylation in WtCM treated cultures",caspase 3; WtCM plus inhibitor,no effect
"CN[C@@H]1C[C@H]2O[C@@](C)([C@@H]1OC)n1c3ccccc3c3c4c(c5c6ccccc6n2c5c31)C(=O)NC4 [STS, staurosporine]",cleaved PARP,[1],induced PARP cleavage
same,cell death (release of adenylate kinase),[2]; compared to control,cell death was induced
COC(=O)C[C@H](NC(=O)[C@H](C)NC(=O)[C@@H](NC(=O)OCc1ccccc1)C(C)C)C(=O)CF [zVAD-FMK] (Cbz-Val-Ala-Asp(OMe)-CH2F),caspase 3 activation in STS treated cells,caspase 3; [4],reduced activation of caspase 3
same,caspase 3 activation in TgCM exposed neurons,caspase 3; [5],no increase
same,tau cleavage in STS treated cells,[3]; [4],reduced tau cleavage
same,TauC3 levels / tau cleavage in TgCM exposed neurons,[3]; [5],no increase
same,Aβ-induced caspase 9 activation,caspase 9,blocked
same,TgCM-induced dephosphorylation of BAD,BAD,did not prevent dephosphorylation of BAD
same,levels of cytochrome c in the cytosol or mitochondrial pellet,cytochrome c,did not alter levels of cytochrome c
same,STS-induced cell death,[2]; STS plus inhibitor,blocked
same,spine loss triggered by TgCM,GFP transfected neurons; TgCM treated neurons plus inhibitor,fully blocked the spine loss
same,spine density in WtCM exposed neurons,GFP transfected neurons; WtCM plus inhibitor,significant increase in spine density
same,PSD95 levels in neurons exposed to TgCM,PSD95,preserved
